From PubChem BioAssay (NCI)
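Values below derive from 48-hour exposures of cells grown in 96-well plates, with endpoints linearly interpolated between the two concentrations bracketing the appropriate inhibition level. Definition used: TGI = concentration required for complete inhibition of growth.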

Legend:
Assay in all cases: NCI-60 cell line screen, 48 h
DLD-1 colon = test system: DLD-1 colon
KM20L2 colon = test system: KM20L2 colon
LXFL 529 NSCLC = test system: LXFL 529 NSCLC

Row | Structure (SMILES) | TGI (DLD-1 colon) [µM] | TGI (KM20L2 colon) [µM] | TGI (LXFL 529 NSCLC) [µM]
1 | Cc1ccccc1NC(=O)CC(=O)N1N=C(N2c3ccccc3Sc3ccccc32)CC1c1ccccc1 (configuration not stated) | > 100 | > 100 | > 100
2 | COc1ccc(C2c3cc4c(cc3OC(O)(CO)C2C(=O)O)OCO4)cc1 (configuration not stated) (tested in a mixture with another compound) | 54.9 | > 100 | 31.1
3 | CCOC(=O)C(=O)NCCCN1CCOCC1 | > 100 | > 100 | > 100
4 | COC1CC(CC2CCC(C)C(C(C)C(=O)O)O2)OC2(OC(C)(C3CCC(C)(C4OC(C5OC(O)(CO)C(C)CC5C)CC4C)O3)CC2C)C1C (configuration not stated) | 14.1 | 11 | 4.02
